Laboratory results reported in US5041445A, “3-[1-thiazolidinylbutyl-4-piperazinyl]-1H-indazoles” (Hoechst-Roussel Pharmaceuticals Incorporated, priority 1990, dated 1991).
Read-outs that look alike come from different tables or passages of the source.

Tested on: apomorphine climbing
Experiment: Climbing Mouse Assay (CMA), antagonism of apomorphine-induced climbing
Assay type: in vivo, CK-1 male mice
Settings: linear regression, read-out: Climbing Mice Assay ED50
Source text: The compounds of the present invention are potentially useful as antipsychotic agents as determined in the Climbing Mouse Assay (CMA).
The Climbing Mouse Assay is described by P. Protais, et al., Psychopharmacol., 50, 1 (1976) and B. Costall, Eur. J. Pharmacol., 50, 39 (1978).
The subject CK-1 male mice (23-27 grams) are group-housed under standard laboratory conditions. The mice are individually placed in wire mesh stick cages (4"×4" by 10") and are allowed one hour for adaptation and exploration of the new environment. The apomorphine is injected subcutaneously at 1.5 mg/kg, a dose causing climbing in all subjects for 30 minutes. Compounds to be tested for antipsychotic activity are injected intraperitoneally (i.p.) 30 minutes prior to the apomorphine challenge at a screening dose of 10 mg/kg.
For evaluation of climbing, 3 readings are taken at 10, 20 and 30 minutes after apomorphine administration according to the following scale: […]
______________________________________
4 paws on bottom (no climbing)
2 paws on the wall (rearing)
4 paws on the wall (full climb)
Mice consistently climbing before the injection of apomorphine are discarded.
With full-developed apomorphine climbing, the animals are hanging onto the cage walls, rather motionless, over longer periods of time. By contrast, climbs due to mere motion stimulation usually last only a few seconds.
The climbing scores are individually totaled (maximum score: 6 per mouse over 3 readings) and the total score of the control group (vehicle intraperitoneally; apomorphine subcutaneously) is set to 100%. ED50 values with 95% confidence limits, calculated by linear regression analyses of some of the compounds of this invention are presented in Table 1.

[1] = ip, 30 minutes prior to apomorphine 1.5 mg/kg s.c.

SMILES	ED50 [1]	ED50 (po, apomorphine 1.5 mg/kg s.c.)
CC1SCN(CCCCN2CCN(c3n[nH]c4cc(F)ccc34)CC2)C1=O (centres unmarked) [3-{4-[1-(6-Fluoro-1H-indazol-3-yl)-piperazinyl]butyl}-5-methyl-4-thiazolidinone]	0.11 mg/kg	
CN1CCN(C2=Nc3cc(Cl)ccc3Nc3ccccc32)CC1 [Clozapine, reference compound]	8.1 mg/kg	
O=C1N(CCCCN2CCN(c3n[nH]c4ccccc34)CC2)CSC12CCCCC2 [3-(4-(1-[1H-indazol-3-yl]-4-piperazinyl)butyl)-1-thia-3-azaspiro[4.5]decan-4-one]	0.65 mg/kg	
O=C1N(CCCCN2CCN(c3n[nH]c4cc(F)ccc34)CC2)CSC12CCCCC2 [3-{4-[1-(6-Fluoro-1H-indazol-3-yl)-4-piperazinyl]butyl}-1-thia-3-azaspiro[4.5]decan-4-one]	0.04 mg/kg	0.67 mg/kg
O=C1N(CCCCN2CCN(c3n[nH]c4ccccc34)CC2)CSC12CCCC2 [3-(4-(1-[1H-Indazol-3-yl]-4-piperazinyl)butyl)-1-thia-3-azaspiro[4.4]nonan-4-one]	1.3 mg/kg	2.7 mg/kg
CC1(C)SCN(CCCCN2CCN(c3n[nH]c4ccccc34)CC2)C1=O [3-(4-(1-[1H-Indazol-3-yl]-4-piperazinyl)-butyl)-5,5-dimethyl-4-thiazolidinone]	1.3 mg/kg	
